Patent US7598377B2, “Inhibition of phosphoinositide 3-kinase β” (AstraZeneca AB, priority 2002, dated 2009)
Entries after “also recorded” stand apart in the source; their conditions may differ.

What was measured:
p110δ-PI3K = biological target: T1, p110δ-PI3K (Homo sapiens, UniProt O00329); assay: In vitro enzyme assay, p110δ immunoprecipitated from platelet lysate (Biological Example 1); assay type: biochemical; details: read-out: IC50 (μM), p110δ-PI3K
T1 construct: from tissue; host or cells: washed platelets (lysate, immunoprecipitated with anti-p110δ antibody)
Procedure: (§1) For each immunoprecipitation, 1 mg of lysate was incubated with an anti-p110α (1 μg), anti-p110β (1 μg), anti-p110δ (1 μg) or anti-PI4 kinase antibody (2-5 μg) and 50 μl of a 50% slurry of protein A beads overnight at 4° C. […] For PI4 kinase assays, protein A beads-immune complexes were also washed twice with lysis buffer, prior to two washes with 1× PI4 kinase assay buffer (20 mM Hepes, pH 7.5, 10 mM MgCl2, 0.3% Triton X-100) and the addition of other assay constituents, as described above. All reactions were terminated by the addition of 100 μl 1 M HCl, 200 μl choloroform/methanol (1:1) and 500 μl 2 M KCl and lipids extracted by centrifugation at 15,000×g for 2 minutes. The production of PI3 or PI4 kinase lipid products, PtdIns(3)P and PtdIns(4)P, were confirmed through TLC analysis. The lipid spots were then removed from the TLC plate and the level of radioactivity quantified to accurately determine the level of PtdIns(3)P/PtdIns(4)P production.

PI4K = assay: PI4 kinase assay, immunoprecipitated from platelet lysate; assay type: biochemical
Procedure: as §1

Ab1 = Ab1 (Homo sapiens, UniProt P00519); assay: Tyrosine kinase assay by MDS Pharma Services (Panlabs); assay type: biochemical
HER2 Receptor = HER2 Receptor (Homo sapiens, UniProt P04626); assay: as above; assay type: biochemical
Insulin Receptor = Insulin Receptor (Homo sapiens, UniProt P06213); assay: as above; assay type: biochemical
Casein Kinase 2 = Casein Kinase 2 (Homo sapiens, UniProt P68400); assay: Ser/Thr kinase assay by MDS Pharma Services (Panlabs); assay type: biochemical
PKA Non-selective = assay: as above; assay type: biochemical
[1] = system: PI 3-kinase lipid products in platelets; assay: Shear-induced PI 3-kinase lipid products in platelets (cone & plate device, HPLC); assay type: cell-based
Procedure: Measurements of the lipid products PtdIns(4,5)P2 and PtdIns(3,4)P2 in intact platelets were performed by initially isolating lipids by HPLC and identifying lipid peaks using defined PtdIns(4,5)P2 and PtdIns(3,4)P2 standards. Lipids were integrated and normalized to total lipid applied and expressed as a fraction of untreated (control) samples.
For this assay, whole blood was collected in the presence of anti-coagulant [6 volumes blood to 1 volume anticoagulant (90 mM sodium citrate, 7 mM citric acid, pH 4.6, 140 mM dextrose and 70 mM theophylline)] and platelets isolated and washed using a modified method of Baezinger and Majerus (1974). Briefly, platelet-rich plasma (PRP) was obtained by centrifugation of whole blood at 200×g for 30 minutes. Platelets were then pelleted by centrifugation of the PRP at 2,000×g for 10 minutes. The platelet pellet was resuspended in platelet washing buffer (PWB) [4.3 mM K2HPO4, 4.3 mM Na2HPO4, 24.3 mM NaH2PO4, pH 6.5, 113 mM NaCl, 5.5 mM glucose, 0.5% bovine serum albumin (BSA) and 10 mM theophylline]. […] Lipid peaks co-eluting with commercially available PtdIns(3,4)P2 and PtdIns(4,5)P2 standards were integrated and normalized to total lipid applied and expressed as a fraction of control samples.

washed platelets = assay: FACS analysis of integrin αIIbβ3 activation and P-selectin expression; assay type: cell-based; details: induced by thrombin, collagen and ADP; 0.5 μM TGX-221
Procedure: Agonists: Thrombin, 1 U/ml; ADP, […]; U46619, 1 μM; Soluble collagen 10 μg/ml.
Platelets were then stimulated with thrombin (1 U/ml), ADP ([…]), U46619 (1 μM) or collagen (10 μg/ml) for 20 min at room temperature prior to being fixed with 2% paraformaldehyde for 45 min at room temperature. Fixed platelets were washed twice with Tyrode's buffer, incubated with 1 μg/ml FITC-conjugated anti-mouse F(ab)2′ antibody for 15 min at room temperature, washed twice with Tyrode's buffer, resuspended to a final volume of 500 μl in Tyrode's buffer and analyzed by FACS.

[2] = system: carotid artery occlusive thrombus formation in rabbits; assay: Modified Folts model in rabbits; assay type: in vivo, New Zealand White rabbits
Procedure: Studies were approved by the University of Melbourne Animal Ethics Committee in accordance with the guidelines of the National Health & Medical Research Council of Australia. Anaesthesia was induced in Sprague-Dawley rats (260-400 g) with sodium pentobarbitone (Nembutal; 60 mg/kg i.p.; Merial Australia Pty. Ltd., Sydney, NSW, Australia), and in New Zealand White rabbits (2-3 kg) with pentobarbitone (15 mg/kg i.v.) and fentanyl (6 μg/kg i.v.; David Bull Laboratories, Mulgrave, VIC, Australia). Animals were mechanically ventilated (Ugo Basile ventilator, Comerio, VA, Italy) with room air supplemented with O2. Body temperature was maintained throughout the experiment. Arterial blood pressure was measured via a femoral artery catheter connected to a pressure transducer (Model 1050.1, AD Instruments, Sydney, NSW) and a blood flow probe (1 mm i.d. for rats & 2.5 mm i.d. for rabbits; flowmeter […], Transonic Systems Inc., Ithaca, N.Y., USA) was placed around each (control and test) carotid artery; all parameters were recorded on a PowerLab data acquisition system (8SP; AD Instruments). A silk suture was tied loosely around 1 artery, distal to the flow probe, for subsequent stenosis. […] Carotid blood flow was monitored until it reached 0 ml/min, indicating a clot had formed at the site of stenosis. […] Again, carotid blood flow was monitored until it reached 0 ml/min, and the time recorded. […]

[3] = system: carotid artery occlusive thrombus formation in rats; assay: Electrolytic injury carotid model in rats; assay type: in vivo
Procedure: Treatments were given as an i.v. bolus at time−9 min (i.e. 5 min before applying the current). Error bars are average SEM from repeated-measures ANOVA. […] Error bars are ±1 SEM. Distal to the left carotid artery flow probe, a piece of Parafilm was inserted under the vessel for electrical isolation. The artery was placed onto a hook-shaped platinum electrode, after which, it was clamped distally to the electrode to occlude blood flow and a current of 7 mA was delivered for 4 min using a constant current unit (Model CCU1, Grass Instruments, Quincy, Mass., USA) connected to a Grass SD9 stimulator. The artery clamp was released immediately after this 4 min period. Blood flow was monitored for 60 min after the end of the stimulation. Thrombosis formation was defined by blood flow falling to zero.

rat tail bleeding time = assay: Tail bleeding studies in rats; assay type: in vivo
Procedure: Rats were anaesthetised with halothane in room air supplemented with O2. Tail bleeding time was measured 15 min before drug administration (−15), and 5 and 30 min after administration. For experiments involving pretreatment with aspirin and clopidogrel, tail bleeding time was also measured before the first gavage dose at −25 h. Incisions 5 mm long and 1 mm deep were made in the tail at each time point and bleeding was monitored every 30 sec until it had ceased (=tail bleeding time).

Sequence of Insulin Receptor (P06213 28-1382, species assumed): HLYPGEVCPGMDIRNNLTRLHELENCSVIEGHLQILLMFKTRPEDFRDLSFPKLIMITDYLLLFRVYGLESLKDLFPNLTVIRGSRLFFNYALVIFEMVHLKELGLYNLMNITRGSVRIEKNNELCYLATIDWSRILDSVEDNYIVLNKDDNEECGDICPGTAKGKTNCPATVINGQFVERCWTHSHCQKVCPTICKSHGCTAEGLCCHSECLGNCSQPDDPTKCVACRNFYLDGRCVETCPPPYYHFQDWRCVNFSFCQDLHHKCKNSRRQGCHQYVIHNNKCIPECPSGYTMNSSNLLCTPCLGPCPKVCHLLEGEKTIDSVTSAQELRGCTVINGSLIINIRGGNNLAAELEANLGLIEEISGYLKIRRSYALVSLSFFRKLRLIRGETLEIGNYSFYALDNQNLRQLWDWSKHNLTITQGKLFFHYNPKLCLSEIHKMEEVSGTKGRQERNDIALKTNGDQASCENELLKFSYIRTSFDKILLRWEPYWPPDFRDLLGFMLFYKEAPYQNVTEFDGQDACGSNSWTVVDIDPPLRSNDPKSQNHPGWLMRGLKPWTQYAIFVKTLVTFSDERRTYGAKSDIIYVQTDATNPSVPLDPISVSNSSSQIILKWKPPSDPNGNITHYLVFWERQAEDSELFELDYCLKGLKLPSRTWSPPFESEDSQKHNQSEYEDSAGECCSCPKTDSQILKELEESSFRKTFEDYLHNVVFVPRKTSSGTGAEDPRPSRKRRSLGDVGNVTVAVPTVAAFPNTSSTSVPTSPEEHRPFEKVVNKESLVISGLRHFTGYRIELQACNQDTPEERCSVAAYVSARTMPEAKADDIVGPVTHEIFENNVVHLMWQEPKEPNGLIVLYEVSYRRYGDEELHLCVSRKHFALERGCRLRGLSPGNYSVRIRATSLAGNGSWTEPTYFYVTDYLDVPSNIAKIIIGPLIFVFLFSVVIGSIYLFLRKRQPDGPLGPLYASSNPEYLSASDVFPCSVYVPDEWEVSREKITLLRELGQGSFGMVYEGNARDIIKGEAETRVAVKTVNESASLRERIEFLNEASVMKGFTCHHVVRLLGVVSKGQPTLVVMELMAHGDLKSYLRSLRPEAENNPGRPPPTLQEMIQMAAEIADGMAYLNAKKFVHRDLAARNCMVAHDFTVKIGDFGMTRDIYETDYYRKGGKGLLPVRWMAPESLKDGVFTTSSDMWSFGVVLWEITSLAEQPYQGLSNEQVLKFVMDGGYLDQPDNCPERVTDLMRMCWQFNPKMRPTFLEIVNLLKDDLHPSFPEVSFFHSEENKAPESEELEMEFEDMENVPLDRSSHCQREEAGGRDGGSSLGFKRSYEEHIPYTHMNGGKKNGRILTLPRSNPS
Sequence of Ab1 (P00519 whole entry): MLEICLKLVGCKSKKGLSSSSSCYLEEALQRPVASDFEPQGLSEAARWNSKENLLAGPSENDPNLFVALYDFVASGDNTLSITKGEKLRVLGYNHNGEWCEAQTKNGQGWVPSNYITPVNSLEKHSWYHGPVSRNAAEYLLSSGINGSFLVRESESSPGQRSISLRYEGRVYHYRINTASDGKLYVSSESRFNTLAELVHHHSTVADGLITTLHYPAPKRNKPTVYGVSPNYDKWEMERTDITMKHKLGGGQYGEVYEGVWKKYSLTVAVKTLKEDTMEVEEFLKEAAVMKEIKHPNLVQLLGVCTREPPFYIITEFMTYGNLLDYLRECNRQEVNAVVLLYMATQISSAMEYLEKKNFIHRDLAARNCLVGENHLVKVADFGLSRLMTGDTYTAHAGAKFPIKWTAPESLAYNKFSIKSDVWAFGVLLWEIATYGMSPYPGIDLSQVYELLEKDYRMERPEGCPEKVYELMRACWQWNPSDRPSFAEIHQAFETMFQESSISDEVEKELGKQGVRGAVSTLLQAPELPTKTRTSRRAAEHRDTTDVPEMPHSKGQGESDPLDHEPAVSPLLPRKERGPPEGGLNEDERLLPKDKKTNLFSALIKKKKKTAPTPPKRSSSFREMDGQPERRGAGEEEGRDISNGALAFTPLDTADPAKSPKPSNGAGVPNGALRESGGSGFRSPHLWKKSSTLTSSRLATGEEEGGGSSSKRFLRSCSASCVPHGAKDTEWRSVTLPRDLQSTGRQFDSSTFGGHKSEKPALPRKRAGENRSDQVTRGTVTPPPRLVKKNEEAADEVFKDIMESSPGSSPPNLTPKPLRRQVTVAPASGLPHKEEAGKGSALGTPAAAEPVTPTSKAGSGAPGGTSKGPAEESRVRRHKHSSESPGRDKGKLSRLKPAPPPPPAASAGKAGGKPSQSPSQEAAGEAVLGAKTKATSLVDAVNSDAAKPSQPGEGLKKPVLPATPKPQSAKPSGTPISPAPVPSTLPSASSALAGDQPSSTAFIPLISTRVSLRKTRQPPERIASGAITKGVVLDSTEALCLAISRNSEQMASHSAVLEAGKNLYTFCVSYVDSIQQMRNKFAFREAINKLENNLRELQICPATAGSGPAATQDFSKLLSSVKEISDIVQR
Sequence of Casein Kinase 2 (P68400 whole entry): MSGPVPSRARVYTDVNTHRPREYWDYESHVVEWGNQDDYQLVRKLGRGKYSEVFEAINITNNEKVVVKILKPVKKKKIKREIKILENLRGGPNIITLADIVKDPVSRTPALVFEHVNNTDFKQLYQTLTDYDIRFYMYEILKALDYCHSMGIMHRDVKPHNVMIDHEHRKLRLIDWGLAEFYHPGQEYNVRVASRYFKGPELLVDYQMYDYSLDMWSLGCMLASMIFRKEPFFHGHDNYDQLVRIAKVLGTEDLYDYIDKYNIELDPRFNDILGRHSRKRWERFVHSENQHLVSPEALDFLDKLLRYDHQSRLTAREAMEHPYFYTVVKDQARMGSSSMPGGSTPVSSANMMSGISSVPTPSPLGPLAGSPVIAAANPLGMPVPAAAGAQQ
Sequence of HER2 Receptor (P04626 23-1255): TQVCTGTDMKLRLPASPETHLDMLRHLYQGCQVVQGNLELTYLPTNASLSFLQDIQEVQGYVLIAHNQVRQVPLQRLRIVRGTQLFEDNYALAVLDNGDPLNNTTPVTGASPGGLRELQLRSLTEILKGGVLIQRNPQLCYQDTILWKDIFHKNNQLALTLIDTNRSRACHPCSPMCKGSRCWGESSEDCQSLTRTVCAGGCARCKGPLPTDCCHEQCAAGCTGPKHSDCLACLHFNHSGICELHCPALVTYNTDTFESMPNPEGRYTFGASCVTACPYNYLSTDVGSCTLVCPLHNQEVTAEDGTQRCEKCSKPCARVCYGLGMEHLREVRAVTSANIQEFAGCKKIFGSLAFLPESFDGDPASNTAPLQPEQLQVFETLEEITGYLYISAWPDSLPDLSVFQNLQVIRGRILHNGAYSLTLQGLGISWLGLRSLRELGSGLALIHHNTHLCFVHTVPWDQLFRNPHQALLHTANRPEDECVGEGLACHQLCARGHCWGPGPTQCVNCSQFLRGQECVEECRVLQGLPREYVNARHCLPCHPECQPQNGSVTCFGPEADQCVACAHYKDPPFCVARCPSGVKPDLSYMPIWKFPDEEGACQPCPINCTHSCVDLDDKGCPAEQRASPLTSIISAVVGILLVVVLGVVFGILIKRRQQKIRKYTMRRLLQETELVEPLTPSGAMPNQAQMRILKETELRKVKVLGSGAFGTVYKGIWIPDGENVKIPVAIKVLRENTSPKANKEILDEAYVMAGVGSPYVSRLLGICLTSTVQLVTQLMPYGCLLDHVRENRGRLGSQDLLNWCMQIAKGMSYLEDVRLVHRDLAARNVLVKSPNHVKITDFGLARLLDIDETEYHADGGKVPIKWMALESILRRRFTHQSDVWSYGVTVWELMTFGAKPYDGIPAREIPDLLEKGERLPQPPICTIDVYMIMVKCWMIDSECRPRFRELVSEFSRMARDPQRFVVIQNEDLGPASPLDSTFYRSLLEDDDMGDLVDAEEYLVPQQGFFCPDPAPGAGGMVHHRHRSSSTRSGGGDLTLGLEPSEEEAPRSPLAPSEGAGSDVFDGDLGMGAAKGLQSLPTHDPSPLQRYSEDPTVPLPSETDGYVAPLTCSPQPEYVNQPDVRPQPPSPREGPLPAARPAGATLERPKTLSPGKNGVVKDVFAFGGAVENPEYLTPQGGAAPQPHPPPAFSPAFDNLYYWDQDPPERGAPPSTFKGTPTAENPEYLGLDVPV

- IC50 (p110δ-PI3K): 0.1 µM
- IC50 (PI4K): > 10 µM
- IC50 (Ab1): > 10 µM
- IC50 (HER2 Receptor): > 10 µM
- IC50 (Insulin Receptor): > 10 µM
- IC50 (Casein Kinase 2): > 10 µM
- IC50 (PKA Non-selective): > 10 µM
- bleeding time (rat tail bleeding time; TGX-221 2 mg/kg i.v. in combination with either clopidogrel or aspirin): did not affect bleeding time
- prolonged bleeding time caused by co-administered agents (rat tail bleeding time; TGX-221 2 mg/kg i.v. with aspirin 200 mg/kg p.o.+heparin 100 U/kg i.v.): did not exacerbate
- prolonged bleeding time caused by co-administered agents (rat tail bleeding time; TGX-221 2 mg/kg i.v. with clopidogrel 10 mg/kg p.o.+heparin 100 U/kg i.v.): did not exacerbate
- rat tail bleeding time (rat tail bleeding time; TGX-221 20 mg/kg i.v. alone): unaffected
- rat tail bleeding time (rat tail bleeding time; TGX-221 20 mg/kg i.v. with heparin 100 U/kg i.v.): unaffected
- bleeding time (rat tail bleeding time; administered at >20 fold the minimum therapeutic concentration): did not increase bleeding time
SMILES: Cc1cc(C(C)Nc2ccccc2)c2nc(N3CCOCC3)cc(=O)n2c1 (racemic) [TGX-221, (±)-7-methyl-2-morpholin-4-yl-9-(1-phenylaminoethyl)-pyrido[1,2-a]pyrimidin-4-one]
- inhibitory effect on PI4 kinase (PI4K; in words): minimal inhibitory effect
- cellular levels of conventional phosphoinositides PtdIns, PtdIns(4)P and PtdIns(4,5)P2 ([1]; in words): without altering
- PI 3-kinase lipid generation ([1]; shear 5000 s^−1, in words): selectively inhibited PI 3-kinase lipid generation
- integrin αIIbβ3 activation (PAC-1 binding) (washed platelets): unaffected
- animals in which occlusive thrombus formation was immediately abolished ([2]; 2 mg/kg i.v. bolus): 100%
- occlusive thrombus formation ([2]; 2 mg/kg, in words): completely prevented
- baseline arterial blood pressure, heart rate or carotid artery blood flow ([3]; both the Folts and electrolytic studies): no effect
- occlusive thrombus formation ([3]; rats, 2 mg/kg in PG 5 minutes before injury, in words, 90% occlusion rate in vehicle-treated rats): completely prevented
- carotid blood flow volume over the 60 min post-injury period ([3]; rats, 2 mg/kg, in words): preserving; also recorded: preserved
- normal haemostasis as assessed by tail or ear bleeding times (rat tail bleeding time; in words): did not adversely impact
